Measurements from patent publication US10202427B2, “Esculentin-2CHa peptide and analogues thereof” (UNIVERSITY OF ULSTER, priority 2014, dated 2019).

How the values were obtained:
BRIN-BD11 cells [1] = test: Intracellular calcium in BRIN-BD11 cells (fluorimetric); type: cell-based; settings: peptide 1 μM, 10 min, vs 5.6 mM glucose alone
Protocol: (§1) Changes in membrane potential and [Ca^2+]i were determined fluorimetrically using monolayers of BRIN-BD11 cells as previously described by Miguel et al (2004) and Abdel-Wahab et al (2007) using a membrane potential assay kit or a Ca^2+ assay kit (Molecular Devices, Sunnyvale, Calif., USA) according to the manufacturer's recommended protocols. Data were acquired using a FlexStation scanning fluorimeter with integrated fluid transfer workstation (Molecular Devices). The cells were incubated at 37° C. for 10 min with synthetic peptides at a concentration of 1 μM. Control incubations in the presence of 5.6 mM glucose only, 30 mM KCl, and 10 mM alanine were also carried out.

BRIN-BD11 cells [2] = test: Membrane potential in BRIN-BD11 cells (fluorimetric); type: cell-based; settings: peptide 1 μM, 10 min, vs 5.6 mM glucose alone
Protocol: as §1

BRIN-BD11 cells [3] = test: Insulin release from BRIN-BD11 cells (radioimmunoassay); type: cell-based
Protocol: BRIN-BD11 cells (Public Health England; Cat. No: 10033003) were grown at 37° C. in an atmosphere of 5% CO2 and 95% air in RPMI-1640 tissue culture medium containing 10% (v/v) fetal calf serum, antibiotics (100 U/ml penicillin, 0.1 mg/ml streptomycin) and 11.1 mM glucose as previously described (Marenah et al, 2004; Conlon et al, 2008; and Mechkarska et al, 2011). The cells were pre-incubated for 40 min at 37° C. in 1.0 ml Krebs Ringer bicarbonate (KRB) buffer, pH 7.4 supplemented with either 5.6 mM or 16.7 mM glucose and 0.1% (w/v) bovine serum albumin (Conlon et al, 2008). Incubations with synthetic peptides (10^−12-3×10^−6 M; n =8) were performed for 20 min at 37° C. using the same buffer. After incubation, aliquots of cell supernatant were removed for insulin radioimmunoassay as described by Flatt and Bailey (1981).

BRIN-BD11 cells [4] = test: Insulin release from BRIN-BD11 cells with known modulators of insulin secretion / extracellular calcium; type: cell-based; settings: 16.7 mM glucose; peptide 10^-6 M
Protocol: Cellular mechanism of actions of synthetic peptides was investigated by measuring insulin-release from BRIN-DB11 cells in the presence or absence of synthetic peptides (10^−6M) and known modulators of insulin-release. These additional incubations were carried in (a) medium supplemented with 16.7 mM glucose, (b) calcium-free medium supplemented with 5.6 mM glucose, (c) medium containing 5.6 mM glucose and diazoxide ([…]), (d) medium containing 5.6 mM glucose and verapamil ([…]), and (e) medium supplemented with 16.7 mM glucose and 30 mM KCl. Cells were incubated for 20 min at 37° C. and insulin concentrations in cell supernatants were measured by radioimmunoassay (Flatt and Bailey (1981)).
Without being bound by theory, by incubating BRIN-BD11 cells with the known modulators of insulin release in the absence or presence of the peptides and peptide analogues of the present invention (10^-6M), it was shown that the stimulatory effect of the peptides was inhibited in the presence of verapamil (50 μM) and chelation of extracellular calcium but completely abolished in the presence of diazoxide (200 μM). Moreover, insulin secretion increased with the co-incubation of the peptide with IBMX (200 μM), and tolbutamide (200 μM).

NIH Swiss TO mice = test: Acute in vivo glucose tolerance study, i.p. glucose with peptide; settings: peptide 75 nmol/kg bw i.p. with glucose; for plasma insulin concentration after intraperitoneal glucose load: mice
Protocol: (§2) All animal experiments were carried out in accordance with the UK Animals (Scientific Procedures) Act 1986 and EC Directive 86/609/EEC for animal experiments. For acute in vivo glucose tolerance studies, age-matched groups (n =6) of overnight fasted male NIH Swiss TO mice received an intraperitoneal injection of either glucose alone (32% w/v) or in combination with synthetic peptides (75 nmol/kg body weight). All solutions were administered in 0.9% NaCl (5 ml/kg body weight). Blood glucose concentrations were measured by Bayer Ascencia Blood glucose meter and plasma insulin concentrations were measured by radioimmunoassay as described by Flatt and Bailey (1981). For chronic in vivo studies, male NIH Swiss TO mice were fed high fat diet or standard diet from 8 weeks of age to 27 weeks of age. Peptides were administered twice daily for 28 days. No adverse effects were observed following administration of the peptide. Parameters including body weight, energy intake, blood glucose and plasma insulin levels were monitored once in three days for 28 days. Body weight and energy intake were measured by weighing mice and food weights respectively. At the end of the study, to determine glucose tolerance, glucose (18 mmol/kg bw) was injected (i.p) to overnight fasted mice and blood glucose levels were monitored at 0, 15, 30, 60 and 90 minutes. To determine insulin sensitivity, insulin (25 U/kg bw) was injected and blood glucose levels were monitored at 0, 15, 30 and 60 minutes. To determine blood glucose profile over a period of 24 h, blood glucose levels were monitored at 0 (before peptide administration), 2, 4, 8 (before peptide administration) and 24 h (before peptide administration). Lean and fat mass were determined by DXA scanning and terminal blood and tissues were collected for ex vivo studies including pancreatic islet morphology, hormone content, lipid profile and islet function.

[5] = system: Swiss TO mice on high fat diet; test: Chronic in vivo study, twice-daily peptide for 28 days in high fat fed mice; settings: for glucose tolerance: end of 28 day study, glucose 18 mmol/kg bw i.p., overnight fasted; for effect on body weight change relative to Exendin-4 / body weight change (Day 0-Day 28): twice daily; for effect on body weight change relative to Exendin-4 / body weight change (Day 0-Day 28) / plasma insulin levels during treatment: 28 days; for body weight change (Day 0-Day 28): vs lean and high fat diet saline control; for blood glucose levels during treatment: monitored once in three days for 28 days
Protocol: as §2, with “No adverse effects were observed following administration of the peptide.” left out
In vivo anti-diabetic effects of Exendin-4, Esculentin-2CHa-(GA30), [D-Arg7, D-Lys15,D-Lys23]-esculentin-2CHa-(GA30), and Lys15-octanoate-Esculentin-2CHa-(GA30) were assessed using Swiss TO mice fed high fat diet, with appropriate controls (saline treated mice on standard diet or high fat diet).

[6] = vs high fat diet saline control

Row | Substance | plasma insulin concentration after intraperitoneal glucose load (NIH Swiss TO mice) | glucose tolerance [5] | effect on body weight change relative to Exendin-4 [5] | body weight change (Day 0-Day 28) [5] | islet area, beta and alpha cell area [5, 6] | plasma insulin area under curve [5, 6] | other results
1 | Esculentin-2CHa | increase plasma insulin concentrations | – | – | – | – | – | intracellular calcium (BRIN-BD11 cells [1]): caused an increase in intracellular calcium; membrane depolarization (BRIN-BD11 cells [2]): significantly enhanced membrane depolarization; insulin release from BRIN-BD11 cells (BRIN-BD11 cells [3]; 5.6 mM glucose, peptides 10^-12-3x10^-6 M, 20 min): dose-dependent stimulatory effects; insulin-release stimulatory effects in the presence of high glucose (BRIN-BD11 cells [4]): retained; plasma glucose after intraperitoneal glucose load (NIH Swiss TO mice; mice with diet-induced obesity diabetes (so in the source)): significantly reduced plasma glucose concentration; plasma insulin concentration after intraperitoneal glucose load (NIH Swiss TO mice; listed as esculentin-2CHa): significantly increased
2 | Esculentin-2CHa-(GA30) | significantly increased | improved glucose tolerance, with lowered plasma glucose and insulin levels | comparable to Exendin-4 | significant reduction in body weight | significantly reduced islet area, beta and alpha cell area | markedly lower than high fat diet saline control | insulin-releasing potency compared to native peptide (BRIN-BD11 cells [3]; at lower concentrations): more potent than the native peptide at lower concentrations; acute in vivo effects compared to native peptide (NIH Swiss TO mice): comparable to the effects of native esculentin-CHa; plasma insulin levels during treatment [5, 6]: reduced plasma insulin levels significantly from day 12
3 | Exendin-4 [reference compound] | – | improved glucose tolerance, with lowered plasma glucose and insulin levels | – | significant reduction in body weight | significantly reduced islet area, beta and alpha cell area | – | –
4 | Lys15-octanoate-Esculentin-2CHa-(GA30) | – | improved glucose tolerance, with lowered plasma glucose and insulin levels | comparable to Exendin-4 | significant reduction in body weight | significantly reduced islet area, beta and alpha cell area | markedly lower than high fat diet saline control | blood glucose levels during treatment [5]: reduced blood glucose levels markedly from day 6; LDL levels [5, 6]: reduced LDL levels; plasma insulin levels during treatment [5, 6]: reduced plasma insulin levels significantly from day 12
5 | [D-Arg7, D-Lys15,D-Lys23]-esculentin-2CHa-(GA30) | – | improved glucose tolerance, with lowered plasma glucose and insulin levels | comparable to Exendin-4 | significant reduction in body weight | significantly reduced islet area, beta and alpha cell area | markedly lower than high fat diet saline control | blood glucose levels during treatment [5]: reduced blood glucose levels from day 21
6 | [Lys20, Lys27, Ser31, Ser37]-Esculentin-2CHa | significantly increased | – | – | – | – | – | acute in vivo effects compared to native peptide (NIH Swiss TO mice): comparable to the effects of native esculentin-CHa
7 | [Lys20, Lys27]-Esculentin-2CHa-(GA30) | significantly increased | – | – | – | – | – | –
